Columns and labels:
Assay type in all cases: in vivo
[1] = tested on: ragweed (common ragweed, Ambrosia elatior); experiment: Test A preemergence; details: Preemergence; for Plant response rating, Ragweed: 125 g ai/ha, visual injury after approximately 10 d, 0 to 100 scale where 0 is no effect and 100 is complete control; for Ragweed plant response rating (0 to 100 scale, 0 is no effect, 100 is complete control): 500 g ai/ha, visual injury approx. 10 d
From the text: (§1) Seeds of plant species selected from barnyardgrass (Echinochloa crus-galli), Kochia (Kochia scoparia), ragweed (common ragweed, Ambrosia elatior), ryegrass, Italian (Italian ryegrass, Lolium multiflorum), crabgrass, large (Digitaria sanguinalis), giant foxtail (Setaria faberii), green foxtail (Setaria viridis), morningglory (Ipomoea spp.), pigweed (Amaranthus retroflexus), velvetleaf (Abutilon theophrasti), wheat (Triticum aestivum), and corn (Zea mays) were planted into a blend of loam soil and sand and treated preemergence with a directed soil spray using test chemicals formulated in anon-phytotoxic solvent mixture which included a surfactant.
(§2) At the same time, plants selected from these crop and weed species and also blackgrass (Alopecurus myosuroides), and Galium (catchweed bedstraw, Galium aparine) were planted in pots containing the same blend of loam soil and sand and treated with postemergence applications of test chemicals formulated in the same manner. Plants ranged in height from 2 to 10 cm and were in the one- to two-leaf stage for the postemergence treatment. Treated plants and untreated controls were maintained in a greenhouse for approximately 10 d, after which time all treated plants were compared to untreated controls and visually evaluated for injury. Plant response ratings, summarized in Table A, are based on a 0 to 100 scale where 0 is no effect and 100 is complete control. A dash (-) response means no test result.

[2] = tested on: giant foxtail (Setaria faberii); experiment: Test A preemergence; details: Preemergence; for Plant response rating, Foxtail, Giant: 125 g ai/ha, visual injury after approximately 10 d, 0 to 100 scale where 0 is no effect and 100 is complete control; for Foxtail, Giant plant response rating (0 to 100 scale, 0 is no effect, 100 is complete control): 500 g ai/ha, visual injury approx. 10 d
From the text: as §1, §2

[3] = tested on: Kochia (Kochia scoparia); experiment: Test A preemergence; details: Preemergence; for Plant response rating, Kochia: 125 g ai/ha, visual injury after approximately 10 d, 0 to 100 scale where 0 is no effect and 100 is complete control; for Kochia plant response rating (0 to 100 scale, 0 is no effect, 100 is complete control): 500 g ai/ha, visual injury approx. 10 d
From the text: as §1, §2

[4] = tested on: ryegrass, Italian (Italian ryegrass, Lolium multiflorum); experiment: Test A preemergence; details: Preemergence; for Plant response rating, Ryegrass, Italian: 125 g ai/ha, visual injury after approximately 10 d, 0 to 100 scale where 0 is no effect and 100 is complete control; for Ryegrass, Italian plant response rating (0 to 100 scale, 0 is no effect, 100 is complete control): 500 g ai/ha, visual injury approx. 10 d
From the text: as §1, §2

[5] = tested on: barnyardgrass (Echinochloa crus-galli); experiment: Test A preemergence; details: Preemergence; for Plant response rating, Barnyardgrass: 125 g ai/ha, visual injury after approximately 10 d, 0 to 100 scale where 0 is no effect and 100 is complete control; for Barnyardgrass plant response rating (0 to 100 scale, 0 is no effect, 100 is complete control): 500 g ai/ha, visual injury approx. 10 d
From the text: as §1, §2

[6] = tested on: pigweed (Amaranthus retroflexus); experiment: Test A preemergence; details: Preemergence; for Plant response rating, Pigweed: 125 g ai/ha, visual injury after approximately 10 d, 0 to 100 scale where 0 is no effect and 100 is complete control; for Pigweed plant response rating (0 to 100 scale, 0 is no effect, 100 is complete control): 500 g ai/ha, visual injury approx. 10 d
From the text: as §1, §2

[7] = tested on: rice (Oryra sativa); experiment: Test B flooded paddy test; details: Flood, 0 to 100 scale where 0 is no effect and 100 is complete control, 13 to 15 d
How it was run: (§3)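 2-leaf plants; pots flooded 3 cm over soil; cpd added to paddy water; depth held; greenhouse 13–15 d; visual rating vs controls, 0 = no effect, 100 = complete control.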

[8] = tested on: ducksalad (Heteranthera limosa); experiment: Test B flooded paddy test; details: Flood, 0 to 100 scale where 0 is no effect and 100 is complete control, 13 to 15 d
How it was run: as §3

[9] = tested on: sedge, umbrella (small-flower umbrella sedge, Cyperus difformis); experiment: Test B flooded paddy test; details: Flood, 0 to 100 scale where 0 is no effect and 100 is complete control, 13 to 15 d
How it was run: as §3

[10] = tested on: barnyardgrass (Echinochloa crus-galli); experiment: Test B flooded paddy test; details: Flood, 0 to 100 scale where 0 is no effect and 100 is complete control, 13 to 15 d
How it was run: as §3

[11] = tested on: ragweed (common ragweed, Ambrosia elatior); experiment: Test A postemergence; details: for Ragweed plant response rating: visual injury rating on 0 to 100 scale (0 no effect, 100 complete control), approx. 10 d
From the text: as §1, §2

[12] = tested on: giant foxtail (Setaria faberii); experiment: Test A postemergence; details: for Foxtail, Giant plant response rating: visual injury rating on 0 to 100 scale (0 no effect, 100 complete control), approx. 10 d
From the text: as §1, §2

[13] = tested on: Kochia (Kochia scoparia); experiment: Test A postemergence; details: for Kochia plant response rating: visual injury rating on 0 to 100 scale (0 no effect, 100 complete control), approx. 10 d
From the text: as §1, §2

[14] = tested on: ryegrass, Italian (Italian ryegrass, Lolium multiflorum); experiment: Test A postemergence; details: for Ryegrass, Italian plant response rating: visual injury rating on 0 to 100 scale (0 no effect, 100 complete control), approx. 10 d
From the text: as §1, §2

[15] = tested on: blackgrass (Alopecurus myosuroides); experiment: Test A postemergence; details: for Blackgrass plant response rating: 125 g ai/ha, postemergence, visual injury rating on 0 to 100 scale (0 no effect, 100 complete control), approx. 10 d; for Plant response rating, Blackgrass: Postemergence, 500 g ai/ha, 0 to 100 scale where 0 is no effect and 100 is complete control
From the text: as §1, §2

[16] = tested on: Galium (catchweed bedstraw, Galium aparine); experiment: Test A postemergence; details: for Galium plant response rating: visual injury rating on 0 to 100 scale (0 no effect, 100 complete control), approx. 10 d
From the text: as §1, §2

[17] = tested on: corn (Zea mays); experiment: Test A postemergence; details: for Corn plant response rating: visual injury rating on 0 to 100 scale (0 no effect, 100 complete control), approx. 10 d
From the text: as §1, §2

[18] = tested on: barnyardgrass (Echinochloa crus-galli); experiment: Test A postemergence; details: for Barnyardgrass plant response rating: 125 g ai/ha, postemergence, visual injury rating on 0 to 100 scale (0 no effect, 100 complete control), approx. 10 d; for Plant response rating, Barnyardgrass: Postemergence, 500 g ai/ha, 0 to 100 scale where 0 is no effect and 100 is complete control
From the text: as §1, §2

[19] = tested on: pigweed (Amaranthus retroflexus); experiment: Test A postemergence; details: for Pigweed plant response rating: visual injury rating on 0 to 100 scale (0 no effect, 100 complete control), approx. 10 d
From the text: as §1, §2

[20] = tested on: wheat (Triticum aestivum); experiment: Test A postemergence; details: for Wheat plant response rating: visual injury rating on 0 to 100 scale (0 no effect, 100 complete control), approx. 10 d
From the text: as §1, §2

[21] = Postemergence, 500 g ai/ha, 0 to 100 scale where 0 is no effect and 100 is complete control
[22] = 125 g ai/ha, postemergence, visual rating after approx. 10 d, 0 to 100 scale (0 no effect, 100 complete control)

| Structure (SMILES) | Plant response rating, Ragweed [1] | Ragweed plant response rating (0 to 100 scale, 0 is no effect, 100 is complete control) [1] | Plant response rating, Foxtail, Giant [2] | Foxtail, Giant plant response rating (0 to 100 scale, 0 is no effect, 100 is complete control) [2] | Plant response rating, Kochia [3] | Kochia plant response rating (0 to 100 scale, 0 is no effect, 100 is complete control) [3] | Plant response rating, Ryegrass, Italian [4] | Ryegrass, Italian plant response rating (0 to 100 scale, 0 is no effect, 100 is complete control) [4] | Plant response rating, Barnyardgrass [5] | Barnyardgrass plant response rating (0 to 100 scale, 0 is no effect, 100 is complete control) [5] | Plant response rating, Pigweed [6] | Pigweed plant response rating (0 to 100 scale, 0 is no effect, 100 is complete control) [6] | Plant response rating, Ragweed [11, 21] | Plant response rating, Foxtail, Giant [12, 21] | Plant response rating, Kochia [13, 21] | Plant response rating, Ryegrass, Italian [14, 21] | Blackgrass plant response rating [15] | Plant response rating, Blackgrass [15] | Plant response rating, Galium [16, 21] | Plant response rating, Corn [17, 21] | also measured |
| --- | --- | --- | --- | --- | --- | --- | --- | --- | --- | --- | --- | --- | --- | --- | --- | --- | --- | --- | --- | --- | --- |
| Cc1ccc(C2CNC(=O)C2C(=O)Nc2ccccc2F)c(F)c1 (racemic) [Compound 509] | 0 | 0 | 40 | 70 | 0 | 0 | 0 | 0 | 60 | 90 | 0 | 0 | 0 | 40 | 20 | 0 | 0 | 20 | 40 | 0 | Plant response rating, Rice ([7]; 250 g ai/ha): 0; Plant response rating, Ducksalad ([8]; 250 g ai/ha): 50; Plant response rating, Sedge, Umbrella ([9]; 250 g ai/ha): 0; Plant response rating, Barnyardgrass ([10]; 250 g ai/ha): 0; Ragweed plant response rating ([11]; 125 g ai/ha, postemergence): 0; Foxtail, Giant plant response rating ([12]; 125 g ai/ha, postemergence): 0; Kochia plant response rating ([13]; 125 g ai/ha, postemergence): 0; Ryegrass, Italian plant response rating ([14]; 125 g ai/ha, postemergence): 0; Galium plant response rating ([16]; 125 g ai/ha, postemergence): 0; Corn plant response rating ([17]; 125 g ai/ha, postemergence): 0; Barnyardgrass plant response rating [18]: 60; Plant response rating, Barnyardgrass [18]: 90; Pigweed plant response rating ([19]; 125 g ai/ha, postemergence): 0; Plant response rating, Pigweed [19, 21]: 0; Wheat plant response rating ([20]; 125 g ai/ha, postemergence): 0; Plant response rating, Wheat [20, 21]: 0 |
| O=C1NCC(c2ccnc(C(F)(F)F)c2)C1C(=O)Nc1cccc(F)c1F (racemic) [Compound 514] | 0 | 30 | 90 | 90 | 0 | 50 | 20 | 60 | 90 | 90 | 0 | 40 | 20 | 90 | 50 | 40 | 20 | 50 | 50 | 80 | Plant response rating, Rice ([7]; 250 g ai/ha): 20; Plant response rating, Ducksalad ([8]; 250 g ai/ha): 100; Plant response rating, Sedge, Umbrella ([9]; 250 g ai/ha): 0; Plant response rating, Barnyardgrass ([10]; 250 g ai/ha): 50; Ragweed plant response rating ([11]; 125 g ai/ha, postemergence): 0; Foxtail, Giant plant response rating ([12]; 125 g ai/ha, postemergence): 70; Kochia plant response rating ([13]; 125 g ai/ha, postemergence): 30; Ryegrass, Italian plant response rating ([14]; 125 g ai/ha, postemergence): 20; Galium plant response rating ([16]; 125 g ai/ha, postemergence): 40; Corn plant response rating ([17]; 125 g ai/ha, postemergence): 30; Barnyardgrass plant response rating [18]: 80; Plant response rating, Barnyardgrass [18]: 90; Pigweed plant response rating ([19]; 125 g ai/ha, postemergence): 0; Plant response rating, Pigweed [19, 21]: 30; Wheat plant response rating ([20]; 125 g ai/ha, postemergence): 30; Plant response rating, Wheat [20, 21]: 40 |
| O=C1NCC(c2ccc(C(F)(F)F)c(F)c2)C1C(=O)Nc1ccc(F)cc1F (racemic) [Compound 522] | 0 | 30 | 90 | 90 | 60 | 60 | 30 | 60 | 90 | 90 | 70 | 80 | 0 | 90 | 50 | 40 | 30 | 50 | 60 | 20 | Plant response rating, Rice ([7]; 250 g ai/ha): 0; Plant response rating, Ducksalad ([8]; 250 g ai/ha): 100; Plant response rating, Sedge, Umbrella ([9]; 250 g ai/ha): 0; Plant response rating, Barnyardgrass ([10]; 250 g ai/ha): 40; Ragweed plant response rating ([11]; 125 g ai/ha, postemergence): 0; Foxtail, Giant plant response rating ([12]; 125 g ai/ha, postemergence): 90; Kochia plant response rating ([13]; 125 g ai/ha, postemergence): 20; Ryegrass, Italian plant response rating ([14]; 125 g ai/ha, postemergence): 20; Galium plant response rating ([16]; 125 g ai/ha, postemergence): 30; Corn plant response rating ([17]; 125 g ai/ha, postemergence): 0; Barnyardgrass plant response rating [18]: 60; Plant response rating, Barnyardgrass [18]: 80; Pigweed plant response rating ([19]; 125 g ai/ha, postemergence): 20; Plant response rating, Pigweed [19, 21]: 40; Wheat plant response rating ([20]; 125 g ai/ha, postemergence): 0; Plant response rating, Wheat [20, 21]: 20 |
| O=C1NCC(c2ccc(Oc3ccccc3)cc2)C1C(=O)Nc1cccc(F)c1F (racemic) [Compound 536] | 0 | 0 | 0 | 20 | 0 | 0 | 0 | 0 | 0 | 0 | 0 | 0 | 0 | 30 | 0 | 0 | 0 | 0 | 0 | 0 | Plant response rating, Rice ([7]; 500 g ai/ha): 15; Plant response rating, Ducksalad ([8]; 500 g ai/ha): 0; Plant response rating, Sedge, Umbrella ([9]; 500 g ai/ha): 0; Plant response rating, Barnyardgrass ([10]; 500 g ai/ha): 30; Plant response rating, Ragweed [11, 22]: 0; Plant response rating, Foxtail, Giant [12, 22]: 0; Plant response rating, Kochia [13, 22]: 0; Plant response rating, Ryegrass, Italian [14, 22]: 0; Plant response rating, Galium [16, 22]: 0; Plant response rating, Corn [17, 22]: 0; Barnyardgrass plant response rating [18]: 0; Plant response rating, Barnyardgrass [18]: 0; Plant response rating, Pigweed [19, 22]: 0; Plant response rating, Pigweed [19, 21]: 0; Plant response rating, Wheat [20, 22]: 0; Plant response rating, Wheat [20, 21]: 0 |

— patent US12077503B2, “Substituted cyclic amides and their use as herbicides” (FMC CORPORATION, priority 2015, dated 2024)
